According to patent US20140243239A1, “MULTIPLEXED KINASE INHIBITOR BEADS AND USES THEREOF” (University of North Carolina at Chapel Hill, priority 2011, published 2014):

Assays:
[1] = system: kinome (kinase binding to MIBs) of SUM159 cells; assay: MIB/MS kinome profiling of inhibitor-treated SUM159 cells; format: cell-based, human
Description: Multiplexed inhibitor bead affinity chromatography: Cells and tumors were lysed and harvested as previously described (Oppermann et al., 2009). Oppermann et al., 2009 Mol Cell Proteo 8 1751-1764. Briefly, lysates were brought to 1 M NaCl and passed through columns of washed inhibitor-conjugated beads (bisindoylmaleimide-X, SB203580, lapatinib, dasatinib, purvalanol B, VI16832, PP58) to isolate protein kinases from the lysates (see Supplemental Experimental Procedures for MIBs preparation). Kinase-bound inhibitor beads were washed with high-salt buffer and 0.1% SDS before elution in 0.5% SDS solution in high heat. Proteins were purified using chloroform/methanol extraction, resuspended in 50 mM ammonium bicarbonate (pH 8.0) or 50 mM HEPES (pH 8.0) for SILAC or iTRAQ respectfully. Samples were digested overnight at 37° C. with sequencing grade modified trypsin (Promega). iTRAQ labeling of digested peptides was carried out using iTRAQ 4-plex reagent (AB SCIEX) for 2 hrs at room temperature in the dark. Peptides were dried down, separated using Strong Cation Exchange Spin Columns, Mini and isolated with PepClean C-18 Spin Columns (Thermo Scientific).
LC-MS/MS analysis: MS and MS/MS data were acquired using a MALDI TOF/TOF 5800 (AB SCIEX). Peptides were analyzed using ProteinPilot Software Version 3.0 (AB SCIEX) and identification using UniProtKB/Swiss-Prot database (release Oct. 15, 2009). Proteins were only accepted when at least 1 unique peptide was identified at 99% confidence. ProteinPilot software 3.0 identified and quantified changes in kinase binding to MIBs utilizing the Pro Group Algorithm. […] For each protein ratio reported, a p-value is computed based on Student's t-distribution under the null hypothesis that the protein ratio is 1. MIB/MS analysis with cell lines was done in 2-3 independent experiments. A set of three independent experiments using SILAC labeled SUM159 cells treated with AZD6244 or DMSO was used to assess statistical significance and reproducibility of MIBs/MS to profile kinome response (Supplementary Methods).
Cells were lysed on ice for 20 minutes in lysis buffer containing 50 mM HEPES (pH 7.5), 0.5% Triton X-100, 150 mM NaCl, 1 mM EDTA, 1 mM EGTA, 10 mM sodium fluoride, 2.5 mM sodium orthovanadate, 50 ng/mL calyculin A, 1× protease inhibitor cocktail (Roche), and 1% each of phosphatase inhibitor cocktails 2 and 3 (Sigma). Cell lysate was sonicated (3×10 s) on ice and centrifuged for 15 minutes (13,000 rpm) at 4° C. and the supernatant was collected and syringe-filtered through a […] SFCA membrane. The filtered lysate (approximately 40 mg or protein per experiment) was brought to 1 M NaCl and pre-cleared by flowing over 500 μL of blocked and washed NHS-activated Sepharose 4 Fast Flow beads (GE Healthcare). The flow-through was collected and passed through a column of layered inhibitor-conjugated beads (Bisindoylmaleimide-X (50 μL), SB203580 (50 Lapatinib (100 μL), Dasatinib (100 μL), Purvalanol B (100 μL), VI16832 (100 μL), PP58 (100 4)) to isolate protein kinases from the lysates. Kinase-bound inhibitor beads were washed with 20 mL of high-salt buffer and 10 mL of low-salt buffer, each containing 50 mM HEPES (pH 7.5), 0.5% Triton X-100, 1 mM EDTA, 1 mM EGTA, and 10 mM sodium fluoride, and 1 M NaCl or 150 mM NaCl, respectively. A final wash of 1 mL 0.1% SDS was applied to the columns before elution in 1 mL of a 0.5% SDS solution in high heat. Elutions from all columns were combined and cysteines were alkylated by sequential incubations with DTT (final concentration 5 mM) for 20 minutes at 60° C. and iodoacetamide (final concentration 20 mM) for 30 minutes at room temperature in the dark. The elution was spin-concentrated to 100 μL and detergents were removed by a chloroform/methanol extraction. […]

C3Tag tumors = assay: In vivo tumorigenesis experiment, C3Tag TNBC GEMM (tumor volume); set-up: species or system mouse; details: 21 days, AZD6244 20 mg/kg, sorafenib 30 mg/kg in diet
Description: In vivo tumorigenesis experiments: Animal handling and procedures were approved by the University of North Carolina at Chapel Hill Institutional Animal Care and Use Committee and followed the NIH guidelines. Male C3Tag mice were bred with wild type females to produce experimental offspring. Mice were examined for tumors weekly until a palpable mass was found. Treatment began the same day. Tumor size was assessed twice weekly by caliper measurements of tumor areas ((width)2×length))/2 for 21 days. Percent change of tumor volume was calculated using (Final volume−Initial Volume)/Initial Volume and graphed using R (http://www.r-project.org/). Drugs were incorporated into the diet of mice to achieve a daily dose of AZD6244 20 mg/kg and sorafenib 30 mg/kg. Food was provided ab libitum and the amount of daily food intake was pre-determined using Jackson Labs Phenome Database. Tumors at harvest were cut in half and either snap-frozen in liquid nitrogen and stored at −80° C. or placed in neutral buffered 10% formalin solution.

ERK1/2 = assay: ERK activity in SUM159-R cells (western blot); format: cell-based, human
Description: Detailed methods and antibodies are provided in Supplemental Experimental Procedures.
Generation of AZD6244 resistant SUM159 cells: SUM159 cells were cultured in DMEM/F12 supplemented with 10% FBS media containing 5 μM AZD6244. Media was changed every 2 days, maintaining inhibitor concentrations of 5 μM AZD6244.
Western blotting: Proteins from cell lysates were separated by SDS-PAGE chromatography, transferred to nitrocellulose membranes, and probed with the indicated primary antibodies. Antibodies recognizing pAKT (S473), pAKT (T308), AURA, pAXL (Y702), AXL, c-Myc, DDR1, EGFR, pERK1/2 (T202/Y204), pHER3 (Y1197), MAX, pMEK1/2 (S217/S221), MEK1/2, MKP3, pP70S6K (T389), pPDGFRβ (Y751), pPDGFRβ (Y1009), pPDGFR (Y857), PDGFRβ, pRAF (S338), pRSK1 (T359/S363), pVEGFR2 (Y1175), VEGFR2 were obtained from Cell Signaling Technology. Antibodies for Cyclin A2, Cyclin B1, Cyclin D1, ERK2, RAF, and pRAF (S259) were obtained from Santa Cruz Biotechnology. The antibody recognizing Bim was obtained from Chemicon. The antibody recognizing p-c-Myc (S62) was obtained from Abeam. Secondary HRP-anti-rabbit and HRP-anti-goat secondary antibodies were from Jackson Immunoresearch Laboratories and Santa Cruz Biotechnology, respectively. Western blots were visualized by incubation with SuperSignal West Pico Chemiluminescent Substrate (Thermo Scientific).

[2] = 5 μM AZD6244, SILAC, TiO2 enrichment of MIB elutions

Cn1cnc2c(F)c(Nc3ccc(Br)cc3Cl)c(C(=O)NOCCO)cc21 [AZD6244]
peptides of MIB isolated kinases with decreased phosphorylation [1, 2]: 52 peptides
peptides of MIB isolated kinases with increased phosphorylation [1, 2]: 59 peptides
phosphopeptides of MIB isolated kinases with unchanged phosphorylation status [1, 2]: 365 phosphopeptides
number of kinases with time-dependent MIB binding changes ([1]; 4, 12 and 24 h exposure to AZD6244): more than 140 kinases
MEK1 binding to MIBs ([1]; 12-24 h, 5 μM AZD6244): remains largely inhibited
MEK1 and MEK2, measured by loss of MIB binding ([1]; 4 h, 5 μM AZD6244): inhibited
MEK2 binding to MIBs, AZD6244/DMSO ratio ([1]; 24 h, 5 μM AZD6244): 1
of the 40 highest expressed kinase transcripts of a patient claudin-low tumor, kinases dynamically regulated in binding to MIBs ([1]; SUM159 and/or MDA-MB-231 cells in response to AZD6244): 14 (24%)
mice with tumor regression (C3Tag tumors): 30%
ERK activation in SUM159-R cells (ERK1/2; 25 μM AZD6244): inhibited ERK activation
ERK activity in SUM159-R cells (ERK1/2; 50 μM AZD6244): can be inhibited
